The test system of one assay is MCF7 cells. Briefly: Endogenous ceramide level in cells after treatment. Particulars: 24 hour treatment, 0-25 μM, FIG. 7. In kind it is cell-based, human. The source says:
The administration of guanidino-sphingosines to mammalian cells at concentrations capable of inhibiting SK1 or SK2 were also found to increase the level of endogenous Cer in the cells.

Assay [1] deals with sphingosine kinase 1 (SK1) (Homo sapiens, UniProt Q9NYA1). In words: In vitro inhibition of purified recombinant sphingosine kinase 1. The assay is classed as biochemical. To be noted: purified recombinant enzyme.
Chain of sphingosine kinase 1 (SK1) (Q9NYA1 whole entry, species assumed): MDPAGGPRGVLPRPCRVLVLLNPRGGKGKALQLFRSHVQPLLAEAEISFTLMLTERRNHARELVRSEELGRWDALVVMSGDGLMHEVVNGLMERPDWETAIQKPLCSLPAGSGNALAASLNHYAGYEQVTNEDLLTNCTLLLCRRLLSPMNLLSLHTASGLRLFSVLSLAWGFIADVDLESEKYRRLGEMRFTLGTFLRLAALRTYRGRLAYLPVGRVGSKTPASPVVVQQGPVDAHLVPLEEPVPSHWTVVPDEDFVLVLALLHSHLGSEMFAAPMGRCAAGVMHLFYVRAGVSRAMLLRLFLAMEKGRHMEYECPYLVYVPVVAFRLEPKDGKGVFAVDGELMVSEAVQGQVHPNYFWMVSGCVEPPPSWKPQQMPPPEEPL
The target in assay [2] is T1, sphingosine kinase 2 (SK2) (Homo sapiens, UniProt Q9NRA0).
T1 sequence (Q9NRA0 1-654): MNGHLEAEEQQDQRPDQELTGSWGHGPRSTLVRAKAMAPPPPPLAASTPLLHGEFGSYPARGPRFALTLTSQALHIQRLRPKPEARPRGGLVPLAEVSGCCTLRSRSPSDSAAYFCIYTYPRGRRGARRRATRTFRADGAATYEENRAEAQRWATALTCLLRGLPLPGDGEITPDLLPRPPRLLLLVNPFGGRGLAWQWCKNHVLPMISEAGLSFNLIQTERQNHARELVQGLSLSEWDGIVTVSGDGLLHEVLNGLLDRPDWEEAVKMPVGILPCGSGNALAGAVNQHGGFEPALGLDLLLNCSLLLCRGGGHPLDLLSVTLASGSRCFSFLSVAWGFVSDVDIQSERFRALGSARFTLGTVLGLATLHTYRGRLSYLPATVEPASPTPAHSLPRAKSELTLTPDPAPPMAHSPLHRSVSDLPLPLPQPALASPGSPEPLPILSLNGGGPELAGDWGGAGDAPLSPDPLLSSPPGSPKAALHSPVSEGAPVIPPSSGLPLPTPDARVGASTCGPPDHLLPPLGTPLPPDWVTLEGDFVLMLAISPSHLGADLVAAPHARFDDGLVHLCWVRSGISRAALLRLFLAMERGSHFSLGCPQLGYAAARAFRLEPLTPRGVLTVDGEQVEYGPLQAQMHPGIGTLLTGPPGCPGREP
Briefly: In vitro inhibition of purified recombinant sphingosine kinase 2. In kind it is biochemical. To be noted: purified recombinant enzyme.

The test system of assay [3] is prostate cancer (DU145) cells over-expressing acid ceramidase. Briefly: BD FALCON FLUOROBLOK migration assay. The assay is classed as cell-based, human. To be noted: 5 μM pretreatment overnight; 16/24 hours incubation; FIG. 8. The method, then:
NT represents non-treated cells.
The presently disclosed guanidino-sphingosines were determined to be capable of inhibiting cell migration of cancer cells overexpressing acid ceramidase. The BD™ FALCON™ (Becton Dickinson and Company, Franklin Lakes, N.J., United States of America) migration assay (using FLUOROBLOK™ polyethylene terphthalate (PET) inserts (8.0 μm)) was performed with prostate cancer (DU145) cells over-expressing acid ceramidase. […] After labeling the cells with carboxyfluorescein diacetate succinimidyl ester fluorscent dye (CFMDA), the cells were seeded on the top well of BDTM FLUOROBLOK™ PET membrane collagen-coated inserts. The negative control consisted of serum free media loaded in the bottom well and 10% FCS-enriched media was used as the positive control. After 16/24 hours incubation, the plate was read from the bottom (485/530 nm) and fluorescence was quantified.

Structures can show the parent of a compound that is named as a salt. Where two headings read alike, the source gives them in different places.

In general, IC50 refers to the concentration that gives 50% inhibition. As to `CCCCCCCCCCCCC/C=C/[C@@H](O)[C@H](CO)NC(=N)N` [LCL146, D-erythro-2-N-(1′-carboxamidino)-sphingosine hydrochloride], in the assay with MCF7 cells, the “endogenous C16-ceramide levels” value is on record as “elevation”. Moreover, the IC50 was found to be 420 nM in assay [1] (read-out: In Vitro IC50 on Sphingosine Kinase 1) and 740 nM in assay [2].

Consider `CCCCCCCCCCCCC/C=C/[C@H](O)[C@@H](CO)NC(=N)N` [LCL351, L-erythro-2-N-(1′-carboxamidino)-sphingosine hydrochloride], for which the “endogenous C16-ceramide levels” value with MCF7 cells is reported as “elevation”. Further, in assay [3], the “migration rate of DU145 cells” value was “decreases the migration rate”. The IC50 amounted to 40 nM in assay [1] (read-out: IC50 on SK1) and 300 nM in assay [2].
